Results reported in ChEMBL document CHEMBL1201862, “PubChem BioAssay data set” (2004).
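Results reflect a 48-hour exposure of cells in 96-well plates to compound at five concentrations. Here, GI50 denotes the concentration required for 50% inhibition of growth.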 Calls of active or inactive are those of the source. Cut-off read from the data, not from the text of the source: active = GI50 up to about 1.1 µM and inactive = higher.

Tests used:
Test in all cases: inhibition of tumour cell growth, NCI panel, 48 h
[1] = system: 786-0
[2] = system: BT-549
[3] = system: CCRF-CEM
[4] = system: COLO 205
[5] = system: HCC 2998
[6] = system: HCT-15
[7] = system: HL-60
[8] = system: HOP-62
[9] = system: Hs-578T
[10] = system: KM12
[11] = system: MDA-MB-231
[12] = system: NCI-H23
[13] = system: NCI-H460
[14] = system: NCI-H522
[15] = system: NCI/ADR-RES
[16] = system: OVCAR-8
[17] = system: SF-268
[18] = system: SF-539
[19] = system: SK-MEL-2
[20] = system: SNB-75

| SMILES | GI50 [1] | GI50 [2] | GI50 [3] | GI50 [4] | GI50 [5] | GI50 [6] [µM] | GI50 [7] | GI50 [8] | GI50 [9] | GI50 [10] | GI50 [11] | GI50 [12] | GI50 [13] | GI50 [14] | GI50 [15] | GI50 [16] | GI50 [17] | GI50 [18] | GI50 [19] | GI50 [20] |
| --- | --- | --- | --- | --- | --- | --- | --- | --- | --- | --- | --- | --- | --- | --- | --- | --- | --- | --- | --- | --- |
| O=C(Nc1ccc(Br)c2ccccc12)c1ccc2ccccc2c1O | 3.94 µM (inactive) | 2.83 µM (inactive) | 2.86 µM (inactive) | 2.11 µM (inactive) | 5.64 µM (inactive) | 2.26 | 3.64 µM (inactive) | 2.32 µM (inactive) | 2.79 µM (inactive) | 2.9 µM (inactive) | 3.27 µM (inactive) | 1.9 µM (inactive) | 2.23 µM (inactive) | 1.71 µM (inactive) | 2.72 µM (inactive) | 3.86 µM (inactive) | 3.87 µM (inactive) | 5.16 µM (inactive) | 0.597 µM (active) | 2.3 µM (inactive) |
| CC(C)=CCC[C@H](C)[C@H]1CC[C@@H](C)c2cc(O)c(C)cc21 | 18.6 µM (inactive) | 17.9 µM (inactive) | 22.9 µM (inactive) | 18.3 µM (inactive) | 18.9 µM (inactive) | 18.3 | 21.1 µM (inactive) | 19.1 µM (inactive) | 19.9 µM (inactive) | 17.3 µM (inactive) | 18.2 µM (inactive) | 18.1 µM (inactive) | 18.4 µM (inactive) | 17.4 µM (inactive) | 19.5 µM (inactive) | 18.5 µM (inactive) | 16.8 µM (inactive) | 17.8 µM (inactive) | 17 µM (inactive) | 19.1 µM (inactive) |
| O=c1[nH]c2c(c(=O)[nH]1)SSC2 | 4.89 µM (inactive) | 2.25 µM (inactive) | 0.46 µM (active) | 21.4 µM (inactive) | 16.2 µM (inactive) | 27.7 | 1.99 µM (inactive) | 10.6 µM (inactive) | 24.2 µM (inactive) | 17.9 µM (inactive) | 2.18 µM (inactive) | 12.7 µM (inactive) | 11.7 µM (inactive) | 17.3 µM (inactive) | 2.75 µM (inactive) | 4.16 µM (inactive) | 3.67 µM (inactive) | 3.14 µM (inactive) | 6.44 µM (inactive) | 17.1 µM (inactive) |
| CO[C@@H]1O[C@H](C(=O)c2ccccc2)[C@H]2OC(C)(C)O[C@@H]12 | > 100 µM (inactive) | 68.9 µM (inactive) | 49.7 µM (inactive) | > 100 µM (inactive) | > 100 µM (inactive) | 55.2 | 21.1 µM (inactive) | > 100 µM (inactive) | 83 µM (inactive) | > 100 µM (inactive) | 79.3 µM (inactive) | 94.8 µM (inactive) | 38.1 µM (inactive) | > 100 µM (inactive) | 74.1 µM (inactive) | > 100 µM (inactive) | > 100 µM (inactive) | > 100 µM (inactive) | > 100 µM (inactive) | 96.8 µM (inactive) |
| C=CCNC1=C2C[C@@H](C)C[C@H](OC)[C@H](O)[C@@H](C)/C=C(\C)[C@H](OC(N)=O)[C@@H](OC)/C=C\C=C(/C)C(=O)NC(=CC1=O)C2=O [TANESPIMYCIN] | 0.0638 µM (active) | 5.73 µM (inactive) | 0.493 µM (active) | 0.0124 µM (active) | 0.0664 µM (active) | 0.204 | 0.0489 µM (active) | 0.15 µM (active) | 0.575 µM (active) | 0.0165 µM (active) | 1.11 µM (active) | 0.014 µM (active) | 0.0136 µM (active) | 0.0431 µM (active) | 5.69 µM (inactive) | 0.0607 µM (active) | 0.593 µM (active) | 0.0428 µM (active) | 0.292 µM (active) | 0.0173 µM (active) |
